Converted amounts (≈) assume the structure as drawn. Where two headings read alike, the source gives them in different places.
What was measured:
Flu A (H5N1) = format: cell-based, influenza A virus; details: virus treated one hour
Flu A (H3N2) = experiment: Virucidal activity: virus pre-incubated with compound, applied to MDCK cells 1 h, removed, CPE after 6 days; format: cell-based, influenza A virus
[1] = tested on: Influenza A/California/7/04 (H3N2); experiment: ETOH vs DMSO comparison: compound + virus 1 h at room temperature, on indicator cells 1 hour then removed, neutral red; format: cell-based, influenza A virus; details: exposed to c1 + virus for 1 hour
[2] = tested on: Flu A (H5N1) Vietnam/1203/2004 H; format: cell-based, influenza A virus; details: MDCK cells, continuous exposure
SARS (urbani) = format: cell-based, Severe Acute Respiratory Syndrome (SARS) virus
PIV 14702 = format: cell-based, Parainfluenza virus; details: MA-104 cells, continuous exposure
Protocol: (§1) The antiviral activity of barbituric acid analogs was also evaluated under conditions where the indicator cells to which virus had been previously added and then continuously exposed to different concentrations of C1 for the duration of the experiments. Eight different doses of C1 ranging from 100 μg/ml to half-log dilutions down to 0.032 μg/ml were added to the indicator cells after adding the indicated virus. This virus-cell combination was continuously exposed to C1 until untreated control wells developed a cytopathic effect (CPE) usually after 4 to 6 days of incubation at 37° C. At the end of incubation period at 37° C., the resulting cytopathic effect (CPE) in control and test wells was assessed by visual and a Neutral Red Dye assay.
(§2) Results of CPE versus concentration of C1 were plotted on a semi-log paper and the dose of C1 that caused a 50% inhibition of virus mediated CPE (EC50) was calculated.

[3] = tested on: Influenza A/New Caledonia/20/99 (H1N1); experiment: ETOH vs DMSO comparison: compound + virus 1 h at room temperature, on indicator cells 1 hour then removed, neutral red; format: cell-based, influenza A virus; details: exposed to c1 + virus for 1 hour
[4] = tested on: Influenza A/New Caledonia/20/99 (H1N1); experiment: ETOH vs DMSO comparison: compound + virus 1 h at room temperature, then left on indicator cells 3 days, neutral red; format: cell-based, influenza A virus; details: exposed to c1 + virus for 3 days
RSV A A2 = format: cell-based, Respiratory Synsycitial virus; details: MA-104 cells, continuous exposure
Protocol: as §1, §2

[5] = tested on: Influenza A/California/7/04 (H3N2); experiment: ETOH vs DMSO comparison: compound + virus 1 h at room temperature, then left on indicator cells 3 days, neutral red; format: cell-based, influenza A virus; details: exposed to c1 + virus for 3 days
Measles Chicago = format: cell-based; details: CV-1 cells, continuous exposure
Protocol: as §1, §2

Rhinovirus HGP = format: cell-based; details: HeLa Ohio-1 cells, continuous exposure
Protocol: as §1, §2

Flu B Shanghai virus = experiment: Virucidal activity: virus pre-incubated with compound 1 h, applied to MDCK cells 1 h, removed, CPE after 6 days; format: cell-based, influenza B virus
Protocol: For each test, a stock solution of the lead Compound C1 was made by first dissolving it in a small amount (50-100 microliters) of absolute ethanol (ETOH) followed by addition of growth nutrient medium to a final volume of 1 ml to bring the stock concentration of 20 mg/ml. It was tested at a concentration of 100 μg/ml, with half-log dilutions down to 0.032 μg/ml.
The compound C1 and the virus being tested were incubated together at 8 different concentrations for 1 hour at 37° C. Then virus/compound mixture applied to established cultured MDCK (Madin-Darby canine kidney) cells for 1 hour at 37° C. After 1 hour, the Virus/compound were removed, and replaced with new virus/compound free medium, and the indicator cells were further incubated for 6 days. Virus that survived the one hour pre-incubation and one hour exposure to indicator cells caused cytopathic effect (CPE) development. Results were evaluated by microscopic inspection (visual) as well as a spectrophotometic Neutral Red Dye Assay. The values shown represent the concentration (μg/ml) of C1 that caused a 50% virucidal effect (EC50). […]
The EC50 values were calculated by extrapolation from a plot of concentration versus virucidal activity data on semi-log paper. This allowed us to quantify complete virus killing of a small amount of virus (about 50-100 cell culture infectious doses).

Flu B Shanghai/361/02 = format: cell-based, influenza B virus; details: MDCK cells, continuous exposure
Protocol: as §1, §2

CCCCN1C(=O)CC(=O)N(CCCC)C1=S [Compound C1, 4,6(1H, 5H)-Pyrimidinedione, 1,3-dibutyldihydro-2-thioxo]
dose that caused a 50% inactivation (EC50) (Flu A (H5N1); Neutral red assay, after 6 days): 37 µg/mL | dose that caused a 50% inactivation (EC50) (Flu A (H5N1); visual method, % CPE after 6 days): 6.0 µg/mL | inactivation of the virus by treatment (Flu A (H3N2); FIG. 2): virtually complete inactivation | dose that caused a 50% inactivation (EC50) (Flu A (H3N2); visual method, virus treated for 4 hours (so in the source), MDCK indicator cells): 5.5 µg/mL | Increase virucidal activity of C1 in DMSO ([1]; DMSO versus ETOH): 220% | EC50 of C1 in DMSO ([1]; dissolved in DMSO, neutral red): 20.0 µg/mL | EC50 of C1 in ETOH ([1]; dissolved in ETOH, neutral red): 42.0 µg/mL | EC50 ([2]; Neutral Red): 3 µg/mL (≈ 11.7 µM) | EC50 ([2]; Visual): 3 µg/mL (≈ 11.7 µM) | dose causing 50% inactivation of the virus (SARS (urbani); Neutral Red dye assay): 53 µg/mL | dose causing 50% inactivation of the virus (SARS (urbani); visual method): 12 µg/mL | EC50 (PIV 14702; Neutral Red): 30 µg/mL | EC50 (PIV 14702; Visual): 30 µg/mL | Increase virucidal activity of C1 in DMSO ([3]; DMSO versus ETOH): 140% | EC50 of C1 in DMSO ([3]; dissolved in DMSO, neutral red): 30.0 µg/mL | EC50 of C1 in ETOH ([3]; dissolved in ETOH, neutral red): 42.0 µg/mL | Increase virucidal activity of C1 in DMSO ([4]; DMSO versus ETOH): 200% | EC50 of C1 in DMSO ([4]; dissolved in DMSO, neutral red): >2.6 µg/mL | EC50 of C1 in ETOH ([4]; dissolved in ETOH, neutral red): >4.5 µg/mL | EC50 (RSV A A2; Neutral Red): 30 µg/mL | EC50 (RSV A A2; Visual): 30 µg/mL | Increase virucidal activity of C1 in DMSO ([5]; DMSO versus ETOH): 0% | EC50 of C1 in DMSO ([5]; dissolved in DMSO, neutral red): >1.9 µg/mL | EC50 of C1 in ETOH ([5]; dissolved in ETOH, neutral red): >1.8 µg/mL | EC50 (Measles Chicago; Neutral Red): 40 µg/mL | EC50 (Measles Chicago; Visual): 30 µg/mL | EC50 (Rhinovirus HGP; Neutral Red): 30 µg/mL | EC50 (Rhinovirus HGP; Visual): 30 µg/mL | dose causing 50% inactivation of the virus (Flu B Shanghai virus; Neutral red dye assay): 37 µg/mL | dose causing 50% inactivation of the virus (Flu B Shanghai virus; visual method): 42 µg/mL | EC50 (Flu B Shanghai/361/02; Neutral Red): 3 µg/mL | EC50 (Flu B Shanghai/361/02; Visual): 3 µg/mL
